{
  "source": "paper PMC10010340",
  "about": "“The Wnt Pathway Inhibitor RXC004 Blocks Tumor Growth and Reverses Immune Evasion in Wnt Ligand–dependent Cancer Models” (Cancer Research Communications, 2022)",
  "key": {"[1]": {"tested_on": "AsPC1 xenograft", "experiment": "Xenograft pilot study", "type": "in vivo, mouse (athymic nude)", "conditions": "AsPC1, 1.5 mg/kg twice daily oral", "method": "(§1) The in vivo pilot studies were performed at Axis Bioservices. HPAF-II (5 × 10^6 cells; athymic nude mice), AsPC1 (3 × 10^6 cells; athymic nude mice), and SNU-1411 (1 × 10^7 cells; NOD-SCID mice) were implanted bilaterally, subcutaneously, whereas HCT116 (3 × 10^6 cells; athymic nude mice) were implanted in a single flank. Animals were randomized into the indicated groups and treatment initiated once tumor volumes reached approximately 100–150 mm^3. Dosing was either 1.5 mg/kg twice daily RXC004 for 7–13 days then once daily for the remainder of study (up to 29 days), or 28 days 1.5 mg/kg twice daily RXC004 for HCT116. In these and all other animal studies, unless otherwise specified, RXC004 was dosed orally in 0.5% carboxymethylcellulose + 0.1% Tween-80. For AsPC1, an ascites model, end of study tumor weight (mg) was measured. A total of 12 hours after the final dose, RNA was extracted [GenElute RNA isolation kit (#RTN70, Sigma)] from snap frozen tumor for qRT-PCR expression analysis of Axin2, c-Myc, RNF43, MUC4, and MUC5AC relative to appropriate housekeepers."}, "[2]": {"tested_on": "HPAF-II xenograft", "experiment": "Xenograft pilot study", "type": "in vivo, mouse (athymic nude)", "conditions": "1.5 mg/kg twice daily oral", "method": "as §1"}, "[3]": {"tested_on": "HCT116 xenograft", "experiment": "Xenograft pilot study", "type": "in vivo, mouse (athymic nude)", "conditions": "HCT116, 1.5 mg/kg twice daily oral, 28 days", "method": "as §1"}, "[4]": {"tested_on": "β-catenin protein levels in L-Wnt3a cells", "experiment": "β-catenin expression by flow cytometry", "type": "cell-based, mouse", "conditions": "100 nmol/L, 24 hours", "method": "Reporter Assay: Media from L-Wnt3a cells (L cells overexpressing Wnt3a; ATCC CRL-2647) treated with a concentration-series of RXC004, was incubated with the LEADING LIGHT Wnt Reporter Cell Line (Enzo life sciences; ENZ-61002-0001). Luciferase was detected using the ONE-Glo Luciferase Assay System (Promega E6120), data were normalized to DMSO-treated controls and IC50 values determined. Recombinant Wnt3a (Bio-Techne #1324-WN-010) was used at 1 μg/mL. β-catenin expression: L-Wnt3a cells were treated with RXC004 (100 nmol/L) or DMSO (0.1%) for 24 hours. Cellular β-catenin protein levels were quantified by staining with anti-β-catenin (AlexaFluor488, BD 562505) and assessment using an Agilent Novocyte-3000 flow cytometer."}, "[5]": {"tested_on": "SNU-1411 xenograft", "experiment": "In vivo 18FDG-PET", "parameters": "species or system mouse (NOD-SCID)", "conditions": "SNU-1411, 5 mg/kg once daily", "method": "(§2) Experiment was performed at Medicines Discovery Catapult. SNU-1411 (1 × 10^7 cells; NOD-SCID mice) or HPAF-II (1 × 10^7 cells; NOD-SCID mice) were implanted subcutaneously and treatment with RXC004 (5 mg/kg once daily) or vehicle commenced when tumors reached approximately 200 mm^3. Mice were imaged prior to dosing, day 3 and day 7 after dosing. A 10 MBq injection of ^18FDG (PETNET), with a 45-minute washout was followed by a 20-minute PET scan using a Siemens Inveon PET scanner. Tissues removed on day 7 for biodistribution analysis were assessed using a PerkinElmer Wallac Wizard Gamma counter."}, "[6]": {"tested_on": "SNU-1411 cells", "experiment": "Caspase 3/7 analysis", "type": "cell-based, human", "conditions": "SNU-1411, 100nM, 7 days", "method": "(§3) Cells were treated with RXC004 (100 nmol/L) or DMSO (0.02%) for 7 days. Caspase 3/7 activity was measured using Caspase-Glo 3/7 Assay System (Promega #G8091) and data were plotted as a ratio relative to cell number as quantified using ATPlite 1-Step Reagent (Perkin Elmer #6016731)."}, "[7]": {"tested_on": "HPAF-II cells", "experiment": "Caspase 3/7 analysis", "type": "cell-based, human", "conditions": "100nM, 7 days", "method": "as §3"}, "[8]": {"tested_on": "small intestine of SCID-Beige mice", "experiment": "In vivo toxicity in mice, 28 days (small intestine H&E, Ki67, body weight)", "parameters": "species or system mouse (SCID-Beige)", "method": "Groups of 9–10 SCID-Beige mice were dosed at Translational Drug Discovery with vehicle, 1.5 mg/kg or 5 mg/kg RXC004 orally twice daily, or 5 mg/kg RXC004 orally once daily, for 28 days. Formulation: 5% DMSO, 95% hydroxyl propyl beta cyclodextrin (25% w/v). Formalin-fixed, paraffin-embedded (FFPE) samples from the small intestine were assessed by hematoxylin and eosin (H&E) and/or Ki67 staining at Histologix."}, "[9]": {"tested_on": "HPAF-II xenograft", "experiment": "In vivo 18FDG-PET biodistribution", "parameters": "species or system mouse (NOD-SCID)", "conditions": "5 mg/kg once daily, 7-day dosing", "method": "as §2"}, "[10]": {"experiment": "Microsomal stability", "type": "in vitro ADME, mouse (CD1)", "conditions": "Mouse, 1 μmol/L", "method": "(§4) Metabolic stability: liver microsomes and hepatocytes from human, mouse (CD1), rat (Sprague Dawley) and dog (Beagle) were obtained from Invitrogen. RXC004 (1 μmol/L) was incubated at 37°C with microsomes (0.5 mg · mL^−1) or hepatocytes (0.5 × 10^6 cells · mL^−1). Aliquots were removed at 0–45 minutes and RXC004 concentrations determined by LC/MS-MS analysis. Half-life (T1/2) and intrinsic clearance (CLint) were calculated as described in ref. [18]."}, "[11]": {"experiment": "Microsomal stability", "type": "in vitro ADME, rat (Sprague Dawley)", "conditions": "Rat, 1 μmol/L", "method": "as §4"}, "[12]": {"experiment": "Hepatocyte stability", "type": "in vitro ADME, rat (Sprague Dawley)", "conditions": "Rat, 1 μmol/L", "method": "as §4"}},
  "data": [
    {"smiles": "Cc1c(-c2ccnc(C(F)(F)F)c2)ncn1CC(=O)Nc1ccc(-c2cnccn2)cn1", "note": "[RXC004, 2-[5-methyl-4-[2-(trifluoromethyl)-4-pyridyl]imidazol-1-yl]-N-(5-pyrazin-2-yl-2-pyridyl)acetamide]", "values": [
      {"measurement": "Wnt-responsive gene expression in tumor including c-Myc", "setting": "[1]", "value": "inhibition of Wnt-responsive gene expression"},
      {"measurement": "tumor growth (tumor weight)", "setting": "[1]", "value": "reduction in tumor growth"},
      {"measurement": "Wnt-responsive gene expression in tumor including c-Myc", "setting": "[2]", "value": "inhibition of Wnt-responsive gene expression"},
      {"measurement": "tumor growth", "setting": "[2]", "value": "reduction in tumor growth"},
      {"measurement": "tumor growth", "setting": "[3]", "value": "No effect"},
      {"measurement": "β-catenin protein levels", "setting": "[4]", "value": "reduces β-catenin protein levels in L-Wnt3a cells back to baseline"},
      {"measurement": "18FDG tumor:blood ratios", "setting": "[5]; 7-day dosing", "value": "significant decrease in tumor:blood ratios"},
      {"measurement": "decrease in maximum standardized uptake value (18FDG-PET)", "setting": "[5]; day 7, versus vehicle", "value": 31, "unit": "%"},
      {"measurement": "relative Caspase 3/7 activity", "setting": "[6]", "value": "no effect"},
      {"measurement": "relative Caspase 3/7 activity", "setting": "[7]", "value": "no effect"},
      {"measurement": "Ki67 proliferation marker in intestinal crypts", "setting": "[8]; 1.5 mg/kg twice daily", "value": "no effect on the Ki67 proliferation marker"},
      {"measurement": "villi architecture", "setting": "[8]; 1.5 mg/kg twice daily", "value": "No effects"},
      {"measurement": "villi architecture", "setting": "[8]; 5 mg/kg once daily", "value": "No effects"},
      {"measurement": "Ki67 proliferation marker in intestinal crypts", "setting": "[8]; 5 mg/kg twice daily", "value": "clear decrease"},
      {"measurement": "body weight", "setting": "[8]; 5 mg/kg twice daily", "value": "loss of body weight"},
      {"measurement": "villi architecture", "setting": "[8]; 5 mg/kg twice daily, only in some animals", "value": "Disruption of villi architecture"},
      {"measurement": "18FDG tumor:blood ratios", "setting": "[9]", "value": "significant decrease in tumor:blood ratios"},
      {"measurement": "Microsomal stability: CLint", "setting": "[10]", "value": 3.9, "unit": "μL minute^−^1 · mg^−^1"},
      {"measurement": "Microsomal stability: CLint", "setting": "[11]", "value": 7.8, "unit": "μL minute^−^1 · mg^−^1"},
      {"measurement": "Hepatocyte stability: CLint", "setting": "[12]", "value": "5.3 μL minute^−^1 · 10^6 cells^−^1"}
    ]}
  ]
}
